Measured values from patent publication US8198260B2, “Composition for the prevention and/or treatment of disorders due to abnormal lipid metabolism, comprising propionyl L-carnitine and chitosan” (Sigma-Tau Industrie Farmaceutiche Riunite SpA, priority 1999, dated 2012).

Legend:
[1] = system: experimentally hypercholesterolaemic rabbits; test: Tests in experimentally hypercholesterolaemic rabbits (plasma lipoproteins); format: in vivo, New Zealand rabbits
Description: Another type of experiment was conducted in New Zealand rabbits kept on a hypercholesterolaemic diet for forty days and treated with alkanoyl L-carnitine, chitosan or with the two types of compounds in combination. In these tests, 0.5% by weight of cholesterol was added to the normal diet of the rabbits consisting of 150 g/day and containing 2% fats, 20% fibres and 11% ashes.
While one group of animals was used as a control group, the remaining groups were treated for six days with propionyl L-carnitine (2 g/100 g diet), chitosan (1 g/100 g diet), or propionyl L-carnitine+acetyl L-carnitine+butyryl L-carnitine (1 g+1 g+1 g/100 g diet) or with chitosan plus propionyl L-carnitine or chitosan plus the alkanoyl carnitine complex at the doses indicated above.
At the end of the fortieth day of treatment blood samples were taken from the ear vein from all animals and the plasma was used to calculate lipoprotein content in the various fractions (VLDL, LDL, HDL) after ultracentrifuging according to the method described by Noble (Noble R. P., J. Lipid Res., 9:693, 1968).

[2] = system: male Wistar rats on atherogenic diet; test: Experimental atherosclerosis tests (atherogenic diet for six weeks); format: in vivo; details: 100 mg/kg of each component
Description: D2 200 mUST/g diet was administered for six weeks consecutively to different groups of male Wistar rats.
While one group of rats served as a control group, the other groups were administered chitosan (100 mg/kg) or propionyl L-carnitine (100 mg/kg) or chitosan (100 mg/kg) plus propionyl L-carnitine (100 mg/kg).
Another group of animals was administered acetyl L-carnitine (100 mg/kg) and butyryl L-carnitine (100 mg/kg) in addition to chitosan and propionyl L-carnitine.

[3] = system: experimentally obese rats; test: Tests in experimentally obese rats (lipogenic diet for fifteen days); format: in vivo, Wistar rats
Description: In these tests, male Wistar rats aged approximately two months were administered a lipogenic diet containing 50% glucose, 20% casein, 4% cellulose, 1% hazel nut oil, 18% starch, 2% vitamin mixture, and 5% salt mixture. The diet was administered for fifteen days consecutively to different groups of rats, one of which served as a control group, whereas the remaining groups were administered daily, per 100 g of diet, 2 g of propionyl L-carnitine or 1 g of chitosan, or the two compounds in combination at the same doses.
Another group was also administered acetyl L-carnitine (2 g/100 g diet) and butyryl L-carnitine (0.5 g/100 g diet) in addition to propionyl L-carnitine and chitosan.
At the end of the fifteenth day since the beginning of the diet, feed consumption and increase in body weight were calculated for each group of rats.

[4] = Day 40 of 0.5% cholesterol diet

CCC(=O)O[C@H](CC(=O)[O-])C[N+](C)(C)C [Propionyl L-carnitine, propionyl L-carnitine]
Plasma lipoprotein concentration HDL ([1]; Day 0): 24.2 ± 2.4 mg/dL
Plasma lipoprotein concentration LDL ([1]; Day 0): 9.8 ± 1.9 mg/dL
Plasma lipoprotein concentration VLDL ([1]; Day 0): 1.4 ± 0.9 mg/dL
Plasma lipoprotein concentration HDL [1, 4]: 26.5 ± 10.4 mg/dL
Plasma lipoprotein concentration LDL [1, 4]: 322 ± 31.4 mg/dL
Plasma lipoprotein concentration VLDL [1, 4]: 832 ± 105 mg/dL
Increase in VLDL compared with control animals (in words) ([1]; fortieth day, hypercholesterolaemic diet): much less significant
Protective effect against atherosclerotic lesions induced by the atherogenic diet [2]: substantial protective effect
Mean daily feed consumption (g)/animal, before treatment ([3]; before treatment, lipogenic diet, per 100 g diet: propionyl L-carnitine 2 g, chitosan 1 g, acetyl L-carnitine 2 g, butyryl L-carnitine 0.5 g): 19.8 ± 0.71 g
Mean body growth, final weight increase ([3]; end of fifteenth day of lipogenic diet, same doses in diet): 60.8 ± 5.2
Mean daily feed consumption (g)/animal, at the end of treatment ([3]; end of fifteenth day, lipogenic diet, per 100 g diet: propionyl L-carnitine 2 g, chitosan 1 g, acetyl L-carnitine 2 g, butyryl L-carnitine 0.5 g): 18.9 ± 0.50 g
